Experiments:
Assay type in all cases: cell-based
[1] = tested on: A2780 human ovarian carcinoma cell line; experiment: 96 h growth inhibition, sulforhodamine B assay, A2780; settings: 96 h exposure, v = variable (mean)
[2] = tested on: A2780cis^R human ovarian carcinoma cell line (cisplatin resistant); experiment: 96 h growth inhibition, sulforhodamine B assay, A2780cisR; settings: for IC50: 96 h exposure, growth inhibition, v = variable (mean); for RF resistance factor: IC50 resistant line/IC50 parent line: A2780cis^R / A2780
[3] = tested on: SKOV3 human ovarian carcinoma cell line; experiment: 96 h growth inhibition, sulforhodamine B assay, SKOV3; settings: 96 h exposure, v = variable (mean)
[4] = tested on: CH1dox^R human ovarian carcinoma cell line (doxorubicin resistant); experiment: 96 h growth inhibition, sulforhodamine B assay, CH1doxR; settings: for IC50: 96 h exposure, growth inhibition; for RF resistance factor: IC50 resistant line/IC50 parent line: CH1dox^R / CH1
[5] = tested on: CH1cis^R human ovarian carcinoma cell line (cisplatin resistant); experiment: 96 h growth inhibition, sulforhodamine B assay, CH1cisR; settings: for IC50: 96 h exposure, growth inhibition, v = variable (mean); for RF resistance factor: IC50 resistant line/IC50 parent line: CH1cis^R / CH1
[6] = tested on: T. brucei (S427) bloodstream trypomastigotes; experiment: Trypanosoma brucei bloodstream trypomastigote culture
[7] = tested on: CH1 human ovarian carcinoma cell line; experiment: 96 h growth inhibition, sulforhodamine B assay, CH1; settings: 96 h exposure, v = variable (mean)
T. cruzi (MHOM/BR/00/Y) = experiment: Trypanosoma cruzi in mouse peritoneal macrophages
Procedure: Trypanosoma cruzi: […] Drug activity was determined from the % of infected macrophages in treated cultures. Nifurtimox was used as the positive control.

| Structure (SMILES) | IC50 [1] | IC50 [2] | RF resistance factor: IC50 resistant line/IC50 parent line [2] | IC50 [3] | IC50 [4] | RF resistance factor: IC50 resistant line/IC50 parent line [4] | IC50 [5] | RF resistance factor: IC50 resistant line/IC50 parent line [5] | % Inhibition, Trypanosoma brucei ([6]; 1 μM) | % Inhibition, Trypanosoma brucei ([6]; 3 μM) | % Inhibition, Trypanosoma brucei ([6]; 10 μM) | % Inhibition, Trypanosoma brucei ([6]; 30 μM) | IC50 [7] | % Inhibition, Trypanosoma cruzi (T. cruzi (MHOM/BR/00/Y); 1 μM) | % Inhibition, Trypanosoma cruzi (T. cruzi (MHOM/BR/00/Y); 3 μM) | % Inhibition, Trypanosoma cruzi (T. cruzi (MHOM/BR/00/Y); 10 μM) | % Inhibition, Trypanosoma cruzi (T. cruzi (MHOM/BR/00/Y); 30 μM) | % Inhibition, Trypanosoma brucei ([6]; 0.1 μM) | % Inhibition, Trypanosoma brucei ([6]; 0.3 μM) |
| --- | --- | --- | --- | --- | --- | --- | --- | --- | --- | --- | --- | --- | --- | --- | --- | --- | --- | --- | --- |
| CC#[N+][Pt-2]12[n+]3ccccc3-c3cccc([n+]31)-c1cccc[n+]12.F[B-](F)(F)F.F[B-](F)(F)F [Compound A8] | 50 µM | 100 µM | 2 | > 100 µM | 13 µM | 0.7 | 18.5 µM | 1 | 100% | 100% | 100% | 100% | 18 µM | 0% | 0% | 4.0% | 38.0% | – | – |
| CN(C)c1cc[n+]([Pt-2]23[n+]4ccccc4-c4cccc([n+]42)-c2cccc[n+]23)cc1.F[B-](F)(F)F.F[B-](F)(F)F [Compound A3] | 16 µM | 21.5 µM | 1.3 | 13 µM | 3.95 µM | 0.6 | 7.5 µM | 1.2 | 100% | 100% | 100% | 100% | 6.1 µM | 30.3% | 85.8% | 100% | 99.8% | 44.6% | 100% |
| F[B-](F)(F)F.F[B-](F)(F)F.Fc1ccc[n+]([Pt-2]23[n+]4ccccc4-c4cccc([n+]42)-c2cccc[n+]23)c1 [Compound A5] | 19.5 µM | > 100 µM | – | > 100 µM | 6.1 µM | 0.3 | 17 µM | 1 | 100% | 100% | 100% | 100% | 17 µM | 2.0% | 6.5% | 43.8% | – | – | – |
| F[B-](F)(F)F.F[B-](F)(F)F.c1cc[n+]2c(c1)-c1cccc3[n+]1[Pt-2]2([n+]1ccsc1)[n+]1ccccc1-3 [Compound A6] | 18.6 µM | > 100 µM | 1 | > 100 µM | 6.3 µM | 0.4 | 17 µM | 1 | 100% | 100% | 100% | 100% | 17 µM | 0% | 0% | 5.0% | – | 75.4% | 100% |
| F[B-](F)(F)F.F[B-](F)(F)F.Fc1cccc[n+]1[Pt-2]12[n+]3ccccc3-c3cccc([n+]31)-c1cccc[n+]12 [Compound A4] | 21.5 µM | > 100 µM | – | > 100 µM | 5.4 µM | 0.3 | 14 µM | 0.9 | 100% | 100% | 100% | 100% | 15.5 µM | 3.0% | 6.0% | 93% | – | – | – |
| CN(N)c1cc(-c2ccccn2)nc(-c2ccccn2)c1.Cc1ccncc1.F[B-](F)(F)F.F[B-](F)(F)F.[Pt+2] [S, (4-Picoline)(4′-(1 -Methylhydrazino)-2,2′:6′,2″-Terpyridine) Platinum (II) Tetra-fluoroborate] | 18 µM | 62 µM | 3.4 | > 100 µM | 14.5 µM | 0.2 | > 100 µM | – | 44.4% | 98.3% | 100% | 100% | 65 µM | 60.9% | 53.3% | 53.3% | 334% | 0% | 22.5% |
| Cc1ccncc1.Cc1ccncc1.F[B-](F)(F)F.F[B-](F)(F)F.F[B-](F)(F)F.F[B-](F)(F)F.O=C(CCCCC(=O)NNc1cc(-c2ccccn2)nc(-c2ccccn2)c1)NNc1cc(-c2ccccn2)nc(-c2ccccn2)c1.[Pt+2].[Pt+2] [V, Adipoyl-Linked-Bis[4-Picoline(4′-Hydrazino-2,2′:6′,2″-Terpyridine) Platinum(II)] Tetrafluoroborate] | 19 µM | 40 µM | 2.1 | 98 µM | 40 µM | 0.8 | 42 µM | 0.9 | 0% | 100% | 100% | 100% | 48 µM | 0% | 0% | 0% | 0% | 0% | 0% |
